Assay results reported in patent publication US5210193A, “Piperazine derivatives” (American Cyanamid Company, priority 1990, dated 1993).
Converted amounts (≈) assume the structure as drawn.

Assays:
Experiment in all cases: in vitro antibacterial MIC, agar plate dilution
Format in all cases: cell-based
[1] = tested on: Staphylococcus Spp saprophiticus VGH 84-50; conditions: 18 hours, 35° C., read-out: MIC
Procedure, shortened: (§1)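 Agar plate dilution on Mueller-Hinton agar, inoculum approximately 10^4 CFU per organism applied with a Steers replicator. MIC (mcg/ml) is the lowest compound concentration inhibiting visible growth after 18 hours at 35° C.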

[2] = tested on: Morganella morganii VGH 84-11; conditions: VGH8411, 18 hours, 35° C., read-out: MIC
Procedure, shortened: as §1

[3] = tested on: Staphylococcus epidermidis CMC 83-135; conditions: CMC83135, 18 hours, 35° C., read-out: MIC
Procedure, shortened: as §1

[4] = tested on: Klebsiella pneumoniae MOR 84-4; conditions: Klebsiella pneumoniae, MOR844, 18 h, 35° C., read-out: MIC
Procedure, shortened: as §1

[5] = tested on: Staphylococcus aureus ATTC 29213; conditions: Staphylococcus aureus, ATTC29213, 18 h, 35° C., read-out: MIC
Procedure, shortened: as §1

[6] = tested on: Serratia marcescens F 0-35; conditions: Serratia marcescens, F035, 18 h, 35° C., read-out: MIC
Procedure, shortened: as §1

[7] = tested on: Pseudomonas aeruginosa LL-1244; conditions: Pseudomonas aeruginosa, LL1244, 18 h, 35° C., read-out: MIC
Procedure, shortened: as §1

[8] = tested on: Enterobacter aerogenes VGH 84-36; conditions: Klebsiella aerogenes, VGH8436, 18 hours, 35° C., read-out: MIC
Procedure, shortened: as §1

[9] = tested on: Escherichia coli CMC 84-11; conditions: Escherichia coli, CMC8411, 18 h, 35° C., read-out: MIC
Procedure, shortened: as §1

[10] = tested on: Escherichia coli CMC 84-16; conditions: Escherichia coli, CMC8416, 18 h, 35° C., read-out: MIC
Procedure, shortened: as §1

[11] = tested on: Staphylococcus aureus CMC 83-128; conditions: CMC83128, 18 hours, 35° C., read-out: MIC
Procedure, shortened: as §1

[12] = tested on: Staphylococcus aureus VGH 84-46; conditions: Staphylococcus aureus, VGH8446, 18 h, 35° C., read-out: MIC
Procedure, shortened: as §1

[13] = tested on: Serratia marcescens K 84-18; conditions: Serratia marcescens, K8418, 18 h, 35° C., read-out: MIC
Procedure, shortened: as §1

[14] = tested on: Staphylococcus aureus VGH 84-45; conditions: Staphylococcus aureus, VGH8445, 18 h, 35° C., read-out: MIC
Procedure, shortened: as §1

[15] = tested on: Enterobacter cloacae VGH 84-37; conditions: Enterobacter cloacae, VGH8437, 18 h, 35° C., read-out: MIC
Procedure, shortened: as §1

[16] = tested on: Morganella morganii CMC 84-37; conditions: Morganella morganii, CMC8437, 18 h, 35° C., read-out: MIC
Procedure, shortened: as §1

[17] = tested on: Streptococcus faecalis ATTC 29212; conditions: Enterococcus faecalis, ATTC29212, 18 hours, 35° C., read-out: MIC
Procedure, shortened: as §1

[18] = tested on: Staphylococcus aureus CMC 83-127; conditions: Staphylococcus aureus, CMC83127, 18 h, 35° C., read-out: MIC
Procedure, shortened: as §1

[19] = tested on: Escherichia coli ATCC 25922; conditions: Escherichia coli, ATCC25922, 18 h, 35° C., read-out: MIC
Procedure, shortened: as §1

[20] = tested on: Klebsiella oxytoca MOR 84-28; conditions: MOR8428, 18 hours, 35° C.
Procedure, shortened: as §1

[21] = tested on: Pseudomonas aeruginosa VGH 84-4; conditions: Pseudomonas aeruginosa, VGH844, 18 h, 35° C., read-out: MIC
Procedure, shortened: as §1

[22] = tested on: Staphylococcus aureus Smith; conditions: Staphylococcus aureus, 18 h, 35° C., read-out: MIC
Procedure, shortened: as §1

Escherichia coli NAR 311 = conditions: NAR311, 18 hours, 35° C., read-out: MIC
Procedure, shortened: as §1

[23] = tested on: Streptococcus faecalis VGH 84-65; conditions: Enterococcus faecalis, VGH8465, 18 h, 35° C., read-out: MIC
Procedure, shortened: as §1

[24] = tested on: Enterobacter cloacae K 84-10; conditions: Enterobacter cloacae, K8410, 18 h, 35° C., read-out: MIC
Procedure, shortened: as §1

[25] = tested on: Proteus rettgeri CMC 84-41; conditions: Providencia rettgeri, CMC8441, 18 h, 35° C., read-out: MIC
Procedure, shortened: as §1

Klebsiella pneumoniae AD = conditions: Klebsiella pneumoniae, 18 h, 35° C., read-out: MIC
Procedure, shortened: as §1

[26] = tested on: Staphylococcus epidermidis IO 83-58; conditions: IO8358, 18 hours, 35° C., read-out: MIC
Procedure, shortened: as §1

[27] = tested on: Escherichia coli PRNT 311; conditions: PRNT311, 18 hours, 35° C., read-out: MIC
Procedure, shortened: as §1

[28] = tested on: Staphylococcus epidermidis VGH 84-40; conditions: VGH8440, 18 hours, 35° C., read-out: MIC
Procedure, shortened: as §1

[29] = tested on: Acinetobacter calcoaceticus MOR 84-43; conditions: MOR8443, 18 hours, 35° C., read-out: MIC
Procedure, shortened: as §1

Row | MIC [1] [µg/mL] | MIC [2] [µg/mL] | MIC [3] [µg/mL] | MIC [4] [µg/mL] | MIC [5] [µg/mL] | MIC [6] [µg/mL] | MIC [7] [µg/mL] | MIC [8] [µg/mL] | MIC [9] [µg/mL] | MIC [10] [µg/mL] | MIC [11] [µg/mL] | MIC [12] [µg/mL] | MIC [13] [µg/mL] | MIC [14] [µg/mL] | MIC [15] [µg/mL] | MIC [16] [µg/mL] | MIC [17] [µg/mL] | MIC [18] [µg/mL] | MIC [19] [µg/mL] | MIC [20] [µg/mL] | Structure (SMILES) | other results
1 | 2 (≈ 4.81 µM) | 1 (≈ 2.41 µM) | 0.5 (≈ 1.2 µM) | 2 (≈ 4.81 µM) | 0.5 (≈ 1.2 µM) | 2 (≈ 4.81 µM) | 64 (≈ 154 µM) | 1 (≈ 2.41 µM) | 1 (≈ 2.41 µM) | 0.5 (≈ 1.2 µM) | 0.25 (≈ 0.602 µM) | 0.5 (≈ 1.2 µM) | 2 (≈ 4.81 µM) | 0.12 (≈ 0.289 µM) | 1 (≈ 2.41 µM) | 0.5 (≈ 1.2 µM) | 4 (≈ 9.63 µM) | 0.12 (≈ 0.289 µM) | 1 (≈ 2.41 µM) | 1 (≈ 2.41 µM) | CCn1cc(C(=O)O)c(=O)c2cc(F)c(N3CCNC(c4ccc(C)s4)C3)cc21 (stereo not shown) [Example 37, 1-Ethyl-6-fluoro-1,4-dihydro-7-[3-(5-methyl-2-thienyl)-1-piperazinyl]-4-oxo-3-quinolinecarboxylic acid] | MIC [21]: 16 µg/mL (≈ 38.5 µM); MIC [22]: 0.5 µg/mL (≈ 1.2 µM); MIC (Escherichia coli NAR 311): 16 µg/mL (≈ 38.5 µM); MIC [23]: 4 µg/mL (≈ 9.63 µM); MIC [24]: 1 µg/mL (≈ 2.41 µM); MIC [25]: 1 µg/mL (≈ 2.41 µM); MIC (Klebsiella pneumoniae AD): 2 µg/mL (≈ 4.81 µM); MIC [26]: 0.5 µg/mL (≈ 1.2 µM); MIC [27]: 2 µg/mL (≈ 4.81 µM); MIC [28]: 0.25 µg/mL (≈ 0.602 µM); MIC [29]: 8 µg/mL (≈ 19.3 µM)
2 | 0.25 (≈ 0.554 µM) | 1 (≈ 2.22 µM) | 0.06 (≈ 0.133 µM) | 0.5 (≈ 1.11 µM) | 0.06 (≈ 0.133 µM) | 2 (≈ 4.43 µM) | 4 (≈ 8.86 µM) | 1 (≈ 2.22 µM) | 0.12 (≈ 0.266 µM) | 0.12 (≈ 0.266 µM) | 0.06 (≈ 0.133 µM) | 0.03 (≈ 0.0665 µM) | 1 (≈ 2.22 µM) | 0.03 (≈ 0.0665 µM) | 0.25 (≈ 0.554 µM) | 1 (≈ 2.22 µM) | 0.5 (≈ 1.11 µM) | 0.03 (≈ 0.0665 µM) | 0.12 (≈ 0.266 µM) | 0.12 (≈ 0.266 µM) | O=C(O)c1cn(-c2ccc(F)cc2)c2cc(N3CCNC(c4ccco4)C3)c(F)cc2c1=O (stereo not shown) [Example 67, 6-Fluoro-1-(4-fluorophenyl)-7-[3-(2-furanyl)-1-piperazinyl]-1,4-dihydro-4-oxo-3-quinolinecarboxylic acid] | MIC [22]: 0.03 µg/mL (≈ 0.0665 µM); MIC (Escherichia coli NAR 311): 2 µg/mL (≈ 4.43 µM); MIC [23]: 1 µg/mL (≈ 2.22 µM); MIC [24]: 0.25 µg/mL (≈ 0.554 µM); MIC [25]: 1 µg/mL (≈ 2.22 µM); MIC (Klebsiella pneumoniae AD): 0.25 µg/mL (≈ 0.554 µM); MIC [26]: 0.06 µg/mL (≈ 0.133 µM); MIC [27]: 0.25 µg/mL (≈ 0.554 µM); MIC [28]: 0.06 µg/mL (≈ 0.133 µM); MIC [29]: 0.12 µg/mL (≈ 0.266 µM)
3 | 0.06 (≈ 0.14 µM) | 1 (≈ 2.34 µM) | 0.06 (≈ 0.14 µM) | 0.5 (≈ 1.17 µM) | 0.25 (≈ 0.585 µM) | 2 (≈ 4.68 µM) | 16 (≈ 37.4 µM) | 2 (≈ 4.68 µM) | 0.12 (≈ 0.281 µM) | 0.06 (≈ 0.14 µM) | 0.03 (≈ 0.0702 µM) | 0.06 (≈ 0.14 µM) | 2 (≈ 4.68 µM) | 0.03 (≈ 0.0702 µM) | 0.25 (≈ 0.585 µM) | 0.5 (≈ 1.17 µM) | 0.5 (≈ 1.17 µM) | 0.03 (≈ 0.0702 µM) | 0.12 (≈ 0.281 µM) | 0.12 (≈ 0.281 µM) | CN1CCN(c2cc3c(cc2F)c(=O)c(C(=O)O)cn3C2CC2)CC1c1ccsc1 (stereo not shown) [Example 66, 1-Cyclopropyl-6-fluoro-1,4-dihydro-4-oxo-7-[4-methyl-3-(3-thienyl)-1-piperazinyl]-3-quinolinecarboxylic acid] | MIC [22]: 0.06 µg/mL (≈ 0.14 µM); MIC (Escherichia coli NAR 311): 0.5 µg/mL (≈ 1.17 µM); MIC [23]: 0.25 µg/mL (≈ 0.585 µM); MIC [24]: 0.12 µg/mL (≈ 0.281 µM); MIC [25]: 1 µg/mL (≈ 2.34 µM); MIC (Klebsiella pneumoniae AD): 0.25 µg/mL (≈ 0.585 µM); MIC [26]: 0.06 µg/mL (≈ 0.14 µM); MIC [27]: 0.5 µg/mL (≈ 1.17 µM); MIC [28]: 0.06 µg/mL (≈ 0.14 µM); MIC [29]: 8 µg/mL (≈ 18.7 µM)
